Test results as given in PubChem BioAssay AID248 (DTP/NCI, 2004).
Several values for one entry are separate records, joined by “and”; a condition that tells them apart may be missing. Equal entries are not always repeated. Toxic doses and inconclusive results are not listed. No stated cut-off is given here; in the data, active means T/C of 150% or more; inactive means T/C below 125%.

Tested on: L1210 leukemia ip in BDF1 mice, survival T/C
Assay: NCI In Vivo Anticancer Drug Screen. Data for tumor model L1210 Leukemia (intraperitoneal) in B6D2F1 (BDF1) mice
Settings: endpoint: mean survival time, higher = longer survival
Method in brief: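 In this screen, tumor-bearing mice given compound are compared to those given vehicle, and their survival values are reported as a treated-to-control quotient.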

[1] = dose: 100.0 mg/kg/injection, schedule: Q04DX002 (ip), vehicle: Klucel (hydroxypropylcellulose) (HPC)
[2] = dose: 200.0 mg/kg/injection, schedule: Q04DX002 (ip), vehicle: Klucel (hydroxypropylcellulose) (HPC)
[3] = dose: 400.0 mg/kg/injection, schedule: Q04DX002 (ip), vehicle: Klucel (hydroxypropylcellulose) (HPC)
[4] = dose: 100.0 mg/kg/injection, schedule: Q04DX003 (ip), vehicle: Klucel (hydroxypropylcellulose) (HPC)
[5] = dose: 200.0 mg/kg/injection, schedule: Q04DX003 (ip), vehicle: Klucel (hydroxypropylcellulose) (HPC)
[6] = dose: 100.0 mg/kg/injection, schedule: Q01DX001 (ip), vehicle: saline with Tween-80
[7] = dose: 200.0 mg/kg/injection, schedule: Q01DX001 (ip), vehicle: saline with Tween-80
[8] = dose: 400.0 mg/kg/injection, schedule: Q01DX001 (ip), vehicle: saline with Tween-80
[9] = dose: 100.0 mg/kg/injection, schedule: Q04DX002 (ip), vehicle: saline with Tween-80
[10] = dose: 200.0 mg/kg/injection, schedule: Q04DX002 (ip), vehicle: saline with Tween-80
[11] = dose: 400.0 mg/kg/injection, schedule: Q04DX002 (ip), vehicle: saline with Tween-80

Measured: T/C

COC1OC(CCl)C(OC(C)=O)C(OC(C)=O)C1OS(C)(=O)=O (stereo unspecified)
inactive: [1] 91 % of control | [2] 91 % of control | [3] 97 % of control

NC(=O)C(CCC(=O)O)NC(=O)OCc1ccccc1 (stereo unspecified)
inactive: dose: 25.0 mg/kg/injection, schedule: Q04DX002 (ip), vehicle: Klucel (hydroxypropylcellulose) (HPC) 100 % of control | dose: 50.0 mg/kg/injection, schedule: Q04DX002 (ip), vehicle: Klucel (hydroxypropylcellulose) (HPC) 92 % of control | [1] 100 % of control

CN(C)C(=O)/C=C/C(=O)N(C)C
inactive: dose: 100.0 mg/kg/injection, schedule: Q04DX003 (ip), vehicle: saline 103 % of control | dose: 200.0 mg/kg/injection, schedule: Q04DX003 (ip), vehicle: saline 103 % of control | dose: 400.0 mg/kg/injection, schedule: Q04DX003 (ip), vehicle: saline 108 % of control

CCCCCCCCCC(=O)Nc1ccccc1CC
inactive: dose: 100.0 mg/kg/injection, schedule: Q04DX002 (ip), vehicle: other 116 % of control | dose: 200.0 mg/kg/injection, schedule: Q04DX002 (ip), vehicle: other 105 % of control | dose: 400.0 mg/kg/injection, schedule: Q04DX002 (ip), vehicle: other 101 % of control

BrCC(Br)=C(Br)Br
inactive: dose: 6.0 mg/kg/injection, schedule: Q04DX003 (ip), vehicle: Klucel (hydroxypropylcellulose) (HPC) 105 % of control | dose: 12.0 mg/kg/injection, schedule: Q01DX001 (ip), vehicle: Klucel (hydroxypropylcellulose) (HPC) 88 % of control | dose: 12.0 mg/kg/injection, schedule: Q04DX003 (ip), vehicle: Klucel (hydroxypropylcellulose) (HPC) 91 % of control | dose: 25.0 mg/kg/injection, schedule: Q01DX001 (ip), vehicle: Klucel (hydroxypropylcellulose) (HPC) 97 % of control and 101 % of control | dose: 25.0 mg/kg/injection, schedule: Q04DX003 (ip), vehicle: Klucel (hydroxypropylcellulose) (HPC) 91 % of control | dose: 50.0 mg/kg/injection, schedule: Q01DX001 (ip), vehicle: Klucel (hydroxypropylcellulose) (HPC) 93 % of control and 90 % of control | dose: 100.0 mg/kg/injection, schedule: Q01DX001 (ip), vehicle: Klucel (hydroxypropylcellulose) (HPC) 97 % of control

O=C1NC2(C=CC(Br)CC2)C(=O)C12CCCCC2 (stereo unspecified)
inactive: dose: 75.0 mg/kg/injection, schedule: Q01DX001 (ip), vehicle: saline 104 % of control | dose: 150.0 mg/kg/injection, schedule: Q01DX001 (ip), vehicle: saline 100 % of control | dose: 300.0 mg/kg/injection, schedule: Q01DX001 (ip), vehicle: saline 102 % of control

Cc1ccc(SC(=O)CCl)cc1
inactive: dose: 66.0 mg/kg/injection, schedule: Q01DX009 (ip), vehicle: gum acacia 93 % of control | dose: 100.0 mg/kg/injection, schedule: Q01DX009 (ip), vehicle: gum acacia 90 % of control | dose: 100.0 mg/kg/injection, schedule: Q04DX003 (ip), vehicle: gum acacia 102 % of control | dose: 150.0 mg/kg/injection, schedule: Q01DX009 (ip), vehicle: gum acacia 90 % of control | dose: 200.0 mg/kg/injection, schedule: Q01DX009 (ip), vehicle: gum acacia 97 % of control | dose: 200.0 mg/kg/injection, schedule: Q04DX003 (ip), vehicle: gum acacia 96 % of control | dose: 400.0 mg/kg/injection, schedule: Q04DX003 (ip), vehicle: gum acacia 94 % of control

CC(C(=O)c1ccc(Cl)cc1)C(O)(C(F)(F)F)C(F)(F)F (stereo unspecified)
inactive: dose: 50.0 mg/kg/injection, schedule: Q01DX009 (ip), vehicle: Klucel (hydroxypropylcellulose) (HPC) 104 % of control | dose: 100.0 mg/kg/injection, schedule: Q01DX009 (ip), vehicle: Klucel (hydroxypropylcellulose) (HPC) 104 % of control | [4] 103 % of control | dose: 200.0 mg/kg/injection, schedule: Q01DX009 (ip), vehicle: Klucel (hydroxypropylcellulose) (HPC) 108 % of control | [5] 101 % of control | dose: 400.0 mg/kg/injection, schedule: Q04DX003 (ip), vehicle: Klucel (hydroxypropylcellulose) (HPC) 103 % of control

c1ccc(P(=NC2CCCCCC2)(c2ccccc2)c2ccccc2)cc1
inactive: dose: 100.0 mg/kg/injection, schedule: Q01DX001 (ip), vehicle: acetone 95 % of control | dose: 200.0 mg/kg/injection, schedule: Q01DX001 (ip), vehicle: acetone 94 % of control

CCCCCCCCCCCCCCNCCC(=O)O
inactive: dose: 37.5 mg/kg/injection, schedule: Q04DX003 (ip), vehicle: saline 102 % of control | dose: 75.0 mg/kg/injection, schedule: Q04DX003 (ip), vehicle: saline 101 % of control | dose: 150.0 mg/kg/injection, schedule: Q04DX003 (ip), vehicle: saline 102 % of control

CC(=O)OC1CCC2(C)C(=CCC3C2CCC2(C)C3CC3C(c4ccccc4F)=NN(c4ccccc4)C32C#N)C1 (stereo unspecified)
inactive: [1] 106 % of control | [2] 95 % of control | [3] 95 % of control

CCC(/C=C\C(C)C1CCC2C3C=CC45CC4CCC5(C)C3CCC12C)C(C)C (stereo unspecified)
inactive: [6] 96 % of control | [7] 89 % of control | [8] 86 % of control

CN(CCC#N)C1=CCCCCC1
inactive: dose: 100.0 mg/kg/injection, schedule: Q01DX001 (ip), vehicle: saline 101 % of control | dose: 200.0 mg/kg/injection, schedule: Q01DX001 (ip), vehicle: saline 97 % of control

COc1ccc(C(=O)c2ccn[nH]2)cc1
inactive: dose: 75.0 mg/kg/injection, schedule: Q04DX003 (ip), vehicle: Klucel (hydroxypropylcellulose) (HPC) 97 % of control | dose: 150.0 mg/kg/injection, schedule: Q04DX003 (ip), vehicle: Klucel (hydroxypropylcellulose) (HPC) 100 % of control | dose: 300.0 mg/kg/injection, schedule: Q04DX003 (ip), vehicle: Klucel (hydroxypropylcellulose) (HPC) 99 % of control

Clc1ccc2c(c1)Sc1ccccc1O2
inactive: [9] 101 % of control | [10] 101 % of control | [11] 97 % of control

CCOC(=O)C(=Cc1ccc(C=C(C(=O)OCC)C(=O)OCC)cc1)C(=O)OCC
inactive: dose: 50.0 mg/kg/injection, schedule: Q04DX003 (ip), vehicle: Klucel (hydroxypropylcellulose) (HPC) 100 % of control | [4] 100 % of control | [5] 94 % of control

C=CC(OC(C)=O)OC(C)=O
inactive: dose: 2.8 mg/kg/injection, schedule: Q01DX Z (ip), vehicle: carboxymethylcellulose (CMC) 94 % of control | dose: 4.2 mg/kg/injection, schedule: Q01DX Z (ip), vehicle: carboxymethylcellulose (CMC) 95 % of control | dose: 6.2 mg/kg/injection, schedule: Q01DX Z (ip), vehicle: carboxymethylcellulose (CMC) 93 % of control | dose: 6.25 mg/kg/injection, schedule: Q01DX009 (ip), vehicle: saline with Tween-80 91 % of control | dose: 6.25 mg/kg/injection, schedule: Q01DX Z (ip), vehicle: carboxymethylcellulose (CMC) 89 % of control | dose: 9.4 mg/kg/injection, schedule: Q01DX Z (ip), vehicle: carboxymethylcellulose (CMC) 98 % of control and 111 % of control | dose: 12.5 mg/kg/injection, schedule: Q01DX009 (ip), vehicle: saline with Tween-80 104 % of control | dose: 12.5 mg/kg/injection, schedule: Q04DX003 (ip), vehicle: saline with Tween-80 103 % of control | dose: 25.0 mg/kg/injection, schedule: Q01DX009 (ip), vehicle: saline with Tween-80 110 % of control | dose: 25.0 mg/kg/injection, schedule: Q04DX003 (ip), vehicle: saline with Tween-80 111 % of control

COC(=O)CCC(=O)c1cccc2ccccc12
inactive: dose: 100.0 mg/kg/injection, schedule: Q04DX003 (ip), vehicle: acetone 91 % of control | dose: 200.0 mg/kg/injection, schedule: Q04DX003 (ip), vehicle: acetone 96 % of control | dose: 400.0 mg/kg/injection, schedule: Q04DX003 (ip), vehicle: acetone 95 % of control

O=NN1CCN(N=O)CC1
inactive: dose: 100.0 mg/kg/injection, schedule: Q01DX001 (ip), vehicle: carboxymethylcellulose (CMC) 94 % of control | dose: 100.0 mg/kg/injection, schedule: Q04DX003 (ip), vehicle: saline with Tween-80 101 % of control

Clc1ccccc1C=NCC1CCC(CN=Cc2ccccc2Cl)CC1 (stereo unspecified)
inactive: dose: 50.0 mg/kg/injection, schedule: Q01DX009 (ip), vehicle: saline with Tween-80 92 % of control and 100 % of control | [6] 106 % of control | dose: 100.0 mg/kg/injection, schedule: Q01DX009 (ip), vehicle: saline with Tween-80 92 % of control | [9] 104 % of control and 88 % of control | [7] 93 % of control | dose: 200.0 mg/kg/injection, schedule: Q01DX009 (ip), vehicle: saline with Tween-80 90 % of control | [10] 100 % of control | [8] 98 % of control | [11] 89 % of control
